Data on 20 compounds can be found in patent US8653111B2, “Substituted dihydropyrazolones for treating cardiovascular and hematological diseases” (Bayer Intellectual Property GmbH, priority 2006, dated 2014).

Structures are written as SMILES. pIC50: −log10 of the molar value. Where a name gives a salt, the structure may show the parent alone.

The target of the test is HIF prolyl hydroxylase. In words: Inhibition of the activity of HIF prolyl hydroxylase (VBC complex binding to hydroxylated peptide substrate). It is filed as biochemical. Particulars: cell lysate containing prolyl hydroxylase, peptide biotin-DLDLEMLAPYIPMDDDFQL as substrate. How it is done: 1. In vitro Tests for Determination of the Activity and Selectivity of HIF Prolyl 4-Hydroxylase Inhibitors 1.a) Inhibition of the Activity of HIF Prolyl Hydroxylase:
Hydroxylated HIF bonds specifically to the von Hippel-Lindau protein-elongin B-elongin C complex (VBC complex). This interaction occurs only if HIF is hydroxylated on a conserved prolyl radical. It is the basis for the biochemical determination of HIF prolyl hydroxylase activity. The test is carried out as described [Oehme F., Jonghaus W., Narouz-Ott L., Huetter J., Flamme I., Anal. Biochem. 330 (1), 74-80 (2004)]:
A clear 96-well microtiter plate coated with NeutrAvidin HBC (Pierce) is incubated with blocker casein for 30 minutes. The plate is then washed three times with 200 μl each time of wash buffer (50 mM Tris, pH 7.5, 100 mM NaCl, 10% (v/v) blocker casein, 0.05% (v/v) Tween 20) per well. The peptide biotin-DLDLEMLAPYIPMDDDFQL (Eurogentec, 4102 Seraing, Belgium) is added in a concentration of 400 nM in 100 μl wash buffer. This peptide serves as a substrate for the prolyl hydroxylation and is bonded to the microtiter plate. After incubation for 60 minutes, the plate is washed three times with wash buffer, incubated with 1 mM biotin in blocker casein for 30 minutes and then washed again three times with wash buffer.
To carry out the prolyl hydroxylase reaction, the peptide substrate bonded to the plate is incubated with a cell lysate containing prolyl hydroxylase for 1 to 60 minutes. The reaction takes place in 100 μl reaction buffer (20 mM Tris, pH 7.5, 5 mM KCl, 1.5 mM MgCl2, 1 μM-1 mM 2-oxoglutarate, 10 μM FeSO4, 2 mM ascorbate) at room temperature. The reaction mixture moreover contains various concentrations of the prolyl hydroxylase inhibitor to be tested. The test substance is preferably, but not exclusively, employed at concentrations of between 1 nM and 100 μM. The reaction is stopped by washing the plate three times with wash buffer.
For quantitative determination of the prolyl hydroxylation, a fusion protein which contains both thioredoxin from E. coli and the VBC complex in 80 μl bonding buffer (50 mM Tris, pH 7.5, 120 mM NaCl) is added. After 15 minutes, 10 μl of a solution of polyclonal anti-thioredoxin antibodies from rabbit in bonding buffer are added. After a further 30 minutes, 10 μl of a solution of anti-rabbit immunoglobulin coupled to horseradish peroxidase in bonding buffer are added. After incubation at room temperature for 30 minutes, the plate is washed three times with wash buffer in order to remove non-bonded VBC complex and antibodies. To determine the amount of bonded VBC complex, the plate is incubated with TMB for 15 minutes. The color reaction is ended by addition of 100 μl 1 M sulfuric acid. The amount of bonded VBC complex is determined by measurement of the optical density at 450 nm. It is proportional to the amount of hydroxylated proline in the peptide substrate.
Alternatively, a VBC complex coupled to europium (Perkin Elmer) can be used for detection of the prolyl hydroxylation. In this case, the amount of bonded VBC complex is determined by the fluorescence with respect to time. The use of VBC complex labeled with [^35S]-methionine is moreover possible. For this, the radioactively labeled VBC complex can be prepared by in vitro transcription-translation in reticulocyte lysate.
For orientation: pIC50 means −log10 of the IC50, conventionally taken in molar units. The compound `O=c1c(-c2nnc(C(F)(F)F)s2)c[nH]n1-c1ccccn1` [Example 5] showed a pIC50 of 5.92.
In the case of `Cc1ccnc(-n2[nH]cc(-n3ccnn3)c2=O)c1` [Example 7, 2-(4-Methylpyridin-2-yl)-4-(1H-1,2,3-triazol-1-yl)-1,2-dihydro-3H-pyrazol-3-one hydrochloride] it was 6.47; in that of `O=c1c(-n2ccnc2)c[nH]n1-c1cc(N2CCCCC2)ncn1` [Example 10, 4-(1H-Imidazol-1-yl)-2-(6-piperidin-1-ylpyrimidin-4-yl)-1,2-dihydro-3H-pyrazol-3-one], 6.30.
In the case of `O=c1c(-n2cnc(C(F)(F)F)c2)c[nH]n1-c1ccc(CO)cn1` [Example 12, 2-[5-(Hydroxymethyl)pyridin-2-yl]-4-[4-(trifluoromethyl)-1H-imidazol-1-yl]-1,2-dihydro-3H-pyrazol-3-one] it was 6.12; in that of `O=c1c(-n2ccnn2)c[nH]n1-c1cc(C2CC2)ncn1` [Example 17, 2-(6-Cyclopropylpyrimidin-4-yl)-4-(1H-1,2,3-triazol-1-yl)-1,2-dihydro-3H-pyrazol-3-one hydrochloride], 6.25; in that of `Cc1cn(-c2c[nH]n(-c3cnccn3)c2=O)nn1` [Example 43], 5.74.
The compound `CC(C)c1cn(-c2c[nH]n(-c3ccc(CO)cn3)c2=O)nn1` [Example 45] gave a negative logarithm of the IC50 (pIC50) of 6.11.
In the case of `Cc1cc(-c2c[nH]n(-c3ccccn3)c2=O)on1` [Example 50] it was 5.85; in that of `CCc1cc(-n2[nH]cc(-n3cnc(C(F)(F)F)c3)c2=O)ncn1` [Example 60], 5.85.
In the case of `Cc1cc(-n2[nH]cc(-n3ccnn3)c2=O)ncc1Br` [Example 61] it was 5.96; in that of `CC(C)(C)OC(=O)c1ccc(-n2[nH]cc(-n3ccnn3)c2=O)nc1` [Example 62, 6-[5-Oxo-4-(1H-1,2,3-triazol-1-yl)-2,5-dihydro-1H-pyrazol-1-yl]pyridine-3-carboxylic acid tert-butyl ester hydrochloride], 7.30.
For the compound `O=c1c(-n2ccnn2)c[nH]n1-c1cc(N2CCOCC2)ncn1` [Example 72, 2-(6-Morpholin-4-ylpyrimidin-4-yl)-4-(1H-1,2,3-triazol-1-yl)-1,2-dihydro-3H-pyrazol-3-one hydrochloride], the pIC50 is 6.31.
In the case of `O=c1c(-n2ccnn2)c[nH]n1-c1cc(C(F)(F)F)ccn1` [Example 83, 4-(1H-1,2,3-Triazol-1-yl)-2-[4-(trifluoromethyl)pyridin-2-yl]-1,2-dihydro-3H-pyrazol-3-one hydrochloride] it was 5.72; in that of `CC(C)(C)COc1ccc(-n2[nH]cc(-n3ccnn3)c2=O)nc1` [Example 85, 2-[5-(2,2-Dimethylpropoxy)pyridin-2-yl]-4-(1H-1,2,3-triazol-1-yl)-1,2-dihydro-3H-pyrazol-3-one hydrochloride], 6.72.
In the case of `Cc1cnc(-n2[nH]cc(-n3ccnc3)c2=O)cc1C` [Example 91, 2-(4,5-Dimethylpyridin-2-yl)-4-(1H-imidazol-1-yl)-1,2-dihydro-3H-pyrazol-3-one hydrochloride] it was 5.55; in that of `O=c1c(-n2ccnc2)c[nH]n1-c1cc(N2CC(O)C2)ncn1` [Example 101, 2-[6-(3-Hydroxyazetidin-1-yl)pyrimidin-4-yl]-4-(1H-imidazol-1-yl)-1,2-dihydro-3H-pyrazol-3-one hydrochloride], 5.77.
In the case of `CCSc1cc(-n2[nH]cc(-n3ccnn3)c2=O)ncn1` [Example 103, 2-[6-(Ethylsulfanyl)pyrimidin-4-yl]-4-(1H-1,2,3-triazol-1-yl)-1,2-dihydro-3H-pyrazol-3-one hydrochloride] it was 6.46.
`O=c1c(-n2ccnn2)c[nH]n1-c1cc(N2CCSCC2)ncn1` [Example 113]: the pIC50 is 6.13.
As for `CC1CCN(c2cc(-n3[nH]cc(-n4ccnn4)c3=O)ncn2)CC1` [Example 129], the pIC50 was 6.44.
In the case of `COC1CCCN(c2cc(-n3[nH]cc(-n4ccnc4)c3=O)ncn2)C1` (centres unmarked) [Example 166] it was 6.16.
